The test system of assay [1] is phosphorylation of myosin light chain T18/S19. Put plainly: In Cell Western for phosphorylation of myosin light chain in A7r5 cells. The format is cell-based, rat. An excerpt: The rat smooth muscle cell line A7r5 was used, and the A7r5 cell culture conditions were DMEM containing 10% FBS. Phspho-MLC-T18/S19 specific antibody and a second detection antibody were used to detect the phosphorylation level of myosin light chain by In Cell Western. Cells treated with positive compounds were used as positive controls, while the group without compounds but with compound solvents was used as negative controls. DRAQ5 stained cell nuclei were used as internal references. GraphPad Prism 7.0 software was used, and fitting was carried out by using a non-linear regression curve with varying slopes to determine the absolute IC50 value.
On the first day, A7r5 cells were resuspended in serum-free medium and seeded into 384 wells of PDL coated transparent black plates at a density of 5000 cells per well. Serum starvation culture was performed for 4 hours, and the cells were incubated with the compound in serum-free medium for 1 hour. 50 µL of 8% PFA (polyformaldehyde) was added to each well and fixed at room temperature for 1 hour. The liquid in the wells was discard and 90 µL of ice methanol was added to each well to permeabilize the cells at 4 °C for 1 hour. Then, PBST (0.1% Tween20-PBS) was added using an automatic separator to wash three times. After patting the plate for drying, 50 µL blocking solution was added to each well for sealing at room temperature for 1 hour. The phspho-MLC-T18/S19 specific antibody was diluted with the blocking solution at a ratio of 1:200. After adding 20 µL to each well, incubation was carried out overnight at 4 °C with a sealed film.
On the second day, the liquid in the wells was discarded and PBST was added using an automatic separator to wash the plate 5 times. After patting the plate for drying, the second detection antibody was diluted with blocking solution at a ratio of 1:800 and DRAQ5 at a ratio of 1:1000. After adding 20 µL to each well, incubation was carried out at room temperature for 1 hour. Then, the liquid in the wells was discarded and PBST was added using an automatic separator to wash the plate 3 times, followed by adding ddH2O to wash the plate 3 times. After patting the plate for drying, it was scaned using a LICOR Odyssey near-infrared imaging scanner.

In another assay the target is ROCK1 (Homo sapiens, UniProt Q13464). Put plainly: ROCK1 kinase enzymatic activity (HTRF, STK2 substrate). The format is biochemical. The settings on record: ROCK1 kinase reaction 20 minutes at room temperature. An excerpt:
(§1) The kinase activity data was expressed by comparing the kinase activity of the test compound and that of the blank group (containing only DMSO), and the IC50 value was obtained by curve fitting using Prism software (GraphPad7.0).

The next assay has as its target ROCK2 (Homo sapiens, UniProt O75116). Put plainly: ROCK2 kinase enzymatic activity (HTRF, STK2 substrate). The format is biochemical. The settings on record: ROCK2 kinase reaction 30 minutes at room temperature.
Description: as §1

Bounds are passed on as bounds.

For 25 molecules, IC50 results are on record in patent EP4653440A1, “HETEROCYCLIC COMPOUND, AND PHARMACEUTICAL COMPOSITION AND USE THEREOF” (Prime Gene Therapeutics Co., Ltd., priority 2023, dated 2024).

The IC50 is the concentration needed to halve the response being measured.

Sequence of ROCK1 (Q13464 whole entry): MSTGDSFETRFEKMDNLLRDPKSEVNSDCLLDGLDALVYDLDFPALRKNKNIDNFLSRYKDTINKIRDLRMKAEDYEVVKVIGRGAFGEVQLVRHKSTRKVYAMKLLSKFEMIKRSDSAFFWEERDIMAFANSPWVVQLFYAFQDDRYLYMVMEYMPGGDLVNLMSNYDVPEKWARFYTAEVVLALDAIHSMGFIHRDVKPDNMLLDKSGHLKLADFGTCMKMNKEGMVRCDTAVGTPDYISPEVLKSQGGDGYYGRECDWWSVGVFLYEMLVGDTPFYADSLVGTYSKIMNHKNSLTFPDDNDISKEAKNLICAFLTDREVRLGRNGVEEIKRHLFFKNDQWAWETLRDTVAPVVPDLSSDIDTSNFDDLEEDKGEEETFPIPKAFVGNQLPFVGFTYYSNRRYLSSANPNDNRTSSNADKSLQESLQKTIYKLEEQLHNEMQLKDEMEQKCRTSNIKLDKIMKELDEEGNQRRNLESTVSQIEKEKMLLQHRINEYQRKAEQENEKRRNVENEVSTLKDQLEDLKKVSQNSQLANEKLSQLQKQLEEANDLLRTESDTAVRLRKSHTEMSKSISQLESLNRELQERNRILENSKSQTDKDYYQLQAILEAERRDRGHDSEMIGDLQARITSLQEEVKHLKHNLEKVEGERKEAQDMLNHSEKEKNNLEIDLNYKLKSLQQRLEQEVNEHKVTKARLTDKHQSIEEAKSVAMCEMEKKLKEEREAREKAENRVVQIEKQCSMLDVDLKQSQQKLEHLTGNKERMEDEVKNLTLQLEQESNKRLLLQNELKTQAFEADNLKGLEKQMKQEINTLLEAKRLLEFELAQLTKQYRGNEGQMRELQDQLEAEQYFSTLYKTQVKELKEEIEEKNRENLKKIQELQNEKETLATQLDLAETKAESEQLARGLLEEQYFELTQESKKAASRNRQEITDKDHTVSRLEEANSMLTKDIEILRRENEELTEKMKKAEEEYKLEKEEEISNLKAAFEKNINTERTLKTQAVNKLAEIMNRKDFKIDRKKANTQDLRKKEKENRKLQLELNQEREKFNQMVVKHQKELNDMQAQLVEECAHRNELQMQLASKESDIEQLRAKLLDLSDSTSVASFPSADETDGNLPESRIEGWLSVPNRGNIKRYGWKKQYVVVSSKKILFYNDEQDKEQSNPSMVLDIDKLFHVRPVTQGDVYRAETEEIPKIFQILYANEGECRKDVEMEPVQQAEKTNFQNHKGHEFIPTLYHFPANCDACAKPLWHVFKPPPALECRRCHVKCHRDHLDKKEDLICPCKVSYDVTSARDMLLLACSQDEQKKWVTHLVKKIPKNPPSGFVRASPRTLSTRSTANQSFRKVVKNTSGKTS
Sequence of ROCK2 (O75116 whole entry): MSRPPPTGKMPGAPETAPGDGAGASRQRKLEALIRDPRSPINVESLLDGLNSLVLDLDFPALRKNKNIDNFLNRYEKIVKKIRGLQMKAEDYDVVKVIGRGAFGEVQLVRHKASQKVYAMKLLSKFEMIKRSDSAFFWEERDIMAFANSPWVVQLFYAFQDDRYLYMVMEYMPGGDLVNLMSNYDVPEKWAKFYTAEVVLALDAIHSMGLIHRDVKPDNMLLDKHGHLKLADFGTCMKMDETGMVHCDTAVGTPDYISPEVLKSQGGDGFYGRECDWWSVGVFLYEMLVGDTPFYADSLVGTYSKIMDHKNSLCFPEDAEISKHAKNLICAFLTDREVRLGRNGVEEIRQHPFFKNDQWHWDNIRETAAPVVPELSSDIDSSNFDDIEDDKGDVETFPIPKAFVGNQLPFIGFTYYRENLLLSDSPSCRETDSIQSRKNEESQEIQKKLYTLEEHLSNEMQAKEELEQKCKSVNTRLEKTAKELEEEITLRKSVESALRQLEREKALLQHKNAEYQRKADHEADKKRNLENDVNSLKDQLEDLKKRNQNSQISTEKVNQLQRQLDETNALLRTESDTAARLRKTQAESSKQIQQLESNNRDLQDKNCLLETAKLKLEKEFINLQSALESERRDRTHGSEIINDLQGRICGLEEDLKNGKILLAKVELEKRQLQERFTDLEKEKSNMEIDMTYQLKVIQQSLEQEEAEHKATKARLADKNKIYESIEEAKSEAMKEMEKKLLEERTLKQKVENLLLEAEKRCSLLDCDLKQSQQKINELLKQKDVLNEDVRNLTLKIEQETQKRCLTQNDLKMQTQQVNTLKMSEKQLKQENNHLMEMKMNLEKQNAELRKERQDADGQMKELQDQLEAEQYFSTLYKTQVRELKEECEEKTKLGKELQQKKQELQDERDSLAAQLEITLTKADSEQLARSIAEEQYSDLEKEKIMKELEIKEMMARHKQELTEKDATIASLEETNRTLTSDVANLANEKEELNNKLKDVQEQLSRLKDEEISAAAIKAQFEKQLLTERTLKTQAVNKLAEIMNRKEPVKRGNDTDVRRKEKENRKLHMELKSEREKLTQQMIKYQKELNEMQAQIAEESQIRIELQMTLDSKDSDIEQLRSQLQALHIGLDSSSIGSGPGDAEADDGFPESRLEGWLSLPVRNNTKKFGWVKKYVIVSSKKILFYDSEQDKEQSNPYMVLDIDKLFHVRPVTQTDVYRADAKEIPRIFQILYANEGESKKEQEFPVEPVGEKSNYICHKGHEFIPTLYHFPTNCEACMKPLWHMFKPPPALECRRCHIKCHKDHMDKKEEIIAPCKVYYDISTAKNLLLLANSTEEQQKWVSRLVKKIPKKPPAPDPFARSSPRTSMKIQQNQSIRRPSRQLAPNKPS

`CC(C)NC(=O)COc1cccc(-c2nc(Nc3ccc4[nH]ncc4c3)c3ccccc3n2)c1` [Belumosudil, reference compound] came in with an IC50 in assay [1] (Rattus norvegicus, A7R5, 1 h) of 3.94 µM.

For the molecule `N#CCC1(n2cc(-c3ncnc4[nH]ccc34)c(N)n2)CCS(=O)(=O)CC1` [Example 1, 2-(4-(3-amino-4-(7H-pyrrolo[2,3-d]pyrimidin-4-yl)-1H-pyrazol-1-yl)-1,1-dioxidotetrahydro-2H-thiopyran-4-yl)acetonitrile], the IC50 in assay [1] (Rattus norvegicus, A7R5, 1 h) is 0.092 µM; against ROCK1, less than 2 nM; against ROCK2 it was less than 1 nM.

As to `N#CCC1(n2cc(-c3ncnc4[nH]ccc34)c(N)n2)CS(=O)(=O)C1` [Example 2, 2-(3-(3-amino-4-(7H-pyrrolo[2,3-d]pyrimidin-4-yl)-1H-pyrazol-1-yl)-1,1-dioxothietan-3-yl)acetonitrile], the IC50 in assay [1] (Rattus norvegicus, A7R5, 1 h) is 0.085 µM; against ROCK1, less than 2 nM; on ROCK2 it was less than 1 nM.

Regarding `N#CCC1(n2cc(-c3ncnc4[nH]ccc34)c(N)n2)CCS(=O)(=O)C1` (stereo not shown) [Example 3, 2-(3-(3-amino-4-(7H-pyrrolo[2,3-d]pyrimidin-4-yl)-1H-pyrazol-1-yl)-1,1-dioxotetrahydrothiophen-3-yl)acetonitrile], the IC50 was 0.078 µM in assay [1] (Rattus norvegicus, A7R5, 1 h); less than 2 nM on ROCK1; less than 1 nM at ROCK2.

Consider `N#CCC1(n2cc(-c3ncnc4[nH]ccc34)c(N)n2)CCCC1` [Example 4, 2-(1-(3-amino-4-(7H-pyrrolo[2,3-d]pyrimidin-4-yl)-1H-pyrazol-1-yl)cyclopentyl)acetonitrile], for which the IC50 in assay [1] (Rattus norvegicus, A7R5, 1 h) was 0.16 µM; against ROCK1 it was less than 10 nM; against ROCK2, less than 10 nM.

For `N#CCC1(n2cc(-c3ncnc4[nH]ccc34)c(N)n2)CCCCC1` [Example 5, 2-(1-(3-amino-4-(7H-pyrrolo[2,3-d]pyrimidin-4-yl)-1H-pyrazol-1-yl)cyclohexyl)acetonitrile], the IC50 was 0.111 µM in assay [1] (Rattus norvegicus, A7R5, 1 h); less than 5 nM at ROCK1; less than 5 nM against ROCK2.

Take `N#CCC1(n2cc(-c3ncnc4[nH]ccc34)c(N)n2)CC(F)(F)C1` [Example 6, 2-(1-(3-amino-4-(7H-pyrrolo[2,3-d]pyrimidin-4-yl)-1H-pyrazol-1-yl)-3,3-difluorocyclobutyl)acetonitrile]: the IC50 in assay [1] (Rattus norvegicus, A7R5, 1 h) is 0.102 µM; at ROCK1 it was less than 5 nM; on ROCK2 it was less than 5 nM.

Consider `N#CC1CCCC1n1cc(-c2ncnc3[nH]ccc23)c(N)n1` (stereo not shown) [Example 7, 2-(3-amino-4-(7H-pyrrolo[2,3-d]pyrimidin-4-yl)-1H-pyrazol-1-yl)cyclopentane-1-nitrile], for which the IC50 in assay [1] (Rattus norvegicus, A7R5, 1 h) was 1.86 µM; against ROCK1 it was less than 50 nM; at ROCK2 it was less than 50 nM.

As for `N#CC1CCCCC1n1cc(-c2ncnc3[nH]ccc23)c(N)n1` (stereo not shown) [Example 8, 2-(3-amino-4-(7H-pyrrolo[2,3-d]pyrimidin-4-yl)-1H-pyrazol-1-yl)cyclohexane-1-nitrile], the IC50 in assay [1] (Rattus norvegicus, A7R5, 1 h) is 1.94 µM; against ROCK1, less than 50 nM; against ROCK2, less than 50 nM.

In the case of `N#CCC1(n2cc(-c3ncnc4[nH]ccc34)c(N)n2)CC(C#N)C1` (stereo not shown) [Example 9, 3-(3-amino-4-(7H-pyrrolo[2,3-d]pyrimidin-4-yl)-1H-pyrazol-1-yl)-3-(cyanomethyl)cyclobutane-1-carbonitrile], the IC50 in assay [1] (Rattus norvegicus, A7R5, 1 h) was 0.068 µM; against ROCK1, less than 10 nM; against ROCK2 it was less than 10 nM.

Turning to `N#CC[C@]1(n2cc(-c3ncnc4[nH]ccc34)c(N)n2)C[C@H](C#N)C1` [Example 10, (1r,3r)-3-(3-amino-4-(7H-pyrrolo[2,3-d]pyrimidin-4-yl)-1H-pyrazol-1-yl)-3-(cyanomethyl)cyclobutane-1-carbonitrile], the IC50 was 0.048 µM in assay [1] (Rattus norvegicus, A7R5, 1 h); less than 2 nM on ROCK1; less than 1 nM against ROCK2.

As for `N#CC[C@]1(n2cc(-c3ncnc4[nH]ccc34)c(N)n2)C[C@@H](C#N)C1` [Example 11, (1s,3s)-3-(3-amino-4-(7H-pyrrolo[2,3-d]pyrimidin-4-yl)-1H-pyrazol-1-yl)-3-(cyanomethyl)cyclobutane-1-carbonitrile], the IC50 in assay [1] (Rattus norvegicus, A7R5, 1 h) was 0.466 µM; at ROCK1, less than 10 nM; at ROCK2, less than 10 nM.

As to `N#CCC(C1CC1)n1cc(-c2ncnc3[nH]ccc23)c(N)n1` (stereo not shown) [Example 12, 3-(3-amino-4-(7H-pyrrolo[2,3-d]pyrimidin-4-yl)-1H-pyrazol-1-yl)-3-cyclopropylpropanitrile], the IC50 in assay [1] (Rattus norvegicus, A7R5, 1 h) is 0.085 µM; at ROCK1, less than 5 nM; against ROCK2 it was less than 2 nM.

Consider `N#CCC(C1CCC1)n1cc(-c2ncnc3[nH]ccc23)c(N)n1` (stereo not shown) [Example 13, 3-(3-amino-4-(7H-pyrrolo[2,3-d]pyrimidin-4-yl)-1H-pyrazol-1-yl)-3-cyclobutylpropionitrile], for which the IC50 in assay [1] (Rattus norvegicus, A7R5, 1 h) was 0.122 µM; against ROCK1, less than 5 nM; on ROCK2, less than 5 nM.

As to `N#CCC(C1CCCCC1)n1cc(-c2ncnc3[nH]ccc23)c(N)n1` (stereo not shown) [Example 14, 3-(3-amino-4-(7H-pyrrolo[2,3-d]pyrimidin-4-yl)-1H-pyrazol-1-yl)-3-cyclohexylpropionitrile], the IC50 in assay [1] (Rattus norvegicus, A7R5, 1 h) is 0.175 µM; against ROCK1 it was less than 5 nM; against ROCK2, less than 5 nM.

Consider `CC1(C)CC(C(CC#N)n2cc(-c3ncnc4[nH]ccc34)c(N)n2)C1` (stereo not shown) [Example 15, 3-(3-amino-4-(7H-pyrrolo[2,3-d]pyrimidin-4-yl)-1H-pyrazol-1-yl)-3-(3,3-dimethylcyclobutyl)propionitrile], for which the IC50 in assay [1] (Rattus norvegicus, A7R5, 1 h) was 0.215 µM; against ROCK1, less than 5 nM; against ROCK2, less than 5 nM.

Consider `CC1CC(C(CC#N)n2cc(-c3ncnc4[nH]ccc34)c(N)n2)C1` (stereo not shown) [Example 16, 3-(3-amino-4-(7H-pyrrolo[2,3-d]pyrimidin-4-yl)-1H-pyrazol-1-yl)-3-(3-methylcyclobutyl)propanitrile], for which the IC50 in assay [1] (Rattus norvegicus, A7R5, 1 h) is 0.284 µM; on ROCK1, less than 5 nM; against ROCK2, less than 5 nM.

As for `CC1CC([C@H](CC#N)n2cc(-c3ncnc4[nH]ccc34)c(N)n2)C1` (stereo partly drawn) [Example 17, (3S)-3-(3-amino-4-(7H-pyrrolo[2,3-d]pyrimidin-4-yl)-1H-pyrazol-1-yl)-3-(-3-methylcyclobutyl)propanitrile], the IC50 was 0.225 µM in assay [1] (Rattus norvegicus, A7R5, 1 h); less than 5 nM against ROCK1; less than 5 nM at ROCK2.

For `CC1CC([C@@H](CC#N)n2cc(-c3ncnc4[nH]ccc34)c(N)n2)C1` (stereo partly drawn) [Example 18, (3R)-3-(3-amino-4-(7H-pyrrolo[2,3-d]pyrimidin-4-yl)-1H-pyrazol-1-yl)-3-(-3-methylcyclobutyl)propanitrile], the IC50 in assay [1] (Rattus norvegicus, A7R5, 1 h) was 0.296 µM; at ROCK1, less than 5 nM; on ROCK2, less than 5 nM.

Take `N#CCC1(n2cc(-c3ncnc4[nH]ccc34)c(N)n2)CC2(CCC2)C1` [Example 19, 2-(2-(3-amino-4-(7H-pyrrolo[2,3-d]pyrimidin-4-yl)-1H-pyrazol-1-yl)spiro[3.3]heptan-2-yl)acetonitrile]: the IC50 in assay [1] (Rattus norvegicus, A7R5, 1 h) was 0.167 µM; at ROCK1 it was less than 5 nM; at ROCK2 it was less than 5 nM.

Consider `N#CCC(C1CC2(CCC2)C1)n1cc(-c2ncnc3[nH]ccc23)c(N)n1` (stereo not shown) [Example 20, 3-(3-amino-4-(7H-pyrrolo[2,3-d]pyrimidin-4-yl)-1H-pyrazol-1-yl)-3-(spiro[3.3]heptan-2-yl)propionitrile], for which the IC50 in assay [1] (Rattus norvegicus, A7R5, 1 h) was 0.218 µM; against ROCK1 it was less than 5 nM; against ROCK2 it was less than 5 nM.

For `N#CCC(C1CC2(CC2)C1)n1cc(-c2ncnc3[nH]ccc23)c(N)n1` (stereo not shown) [Example 21, 3-(3-amino-4-(7H-pyrrolo[2,3-d]pyrimidin-4-yl)-1H-pyrazol-1-yl)-3-(spiro[2.3]hexan-5-yl)propionitrile], the IC50 in assay [1] (Rattus norvegicus, A7R5, 1 h) is 0.185 µM; at ROCK1, less than 5 nM; at ROCK2, less than 5 nM.

In the case of `N#CCC(C1CC2(CCCC2)C1)n1cc(-c2ncnc3[nH]ccc23)c(N)n1` (stereo not shown) [Example 22, 3-(3-amino-4-(7H-pyrrolo[2,3-d]pyrimidin-4-yl)-1H-pyrazol-1-yl)-3-(spiro[3.4]octan-2-yl)propionitrile], the IC50 in assay [1] (Rattus norvegicus, A7R5, 1 h) is 0.264 µM; at ROCK1, less than 5 nM; against ROCK2 it was less than 5 nM.

In assay [1] (rat smooth muscle cell line A7r5, 1 hour compound incubation in serum-free medium, absolute IC50), `Cc1ccc(C(=O)OCc2ccc([C@@H](CN)C(=O)Nc3ccc4cnccc4c3)cc2)c(C)c1` [Netarsudil, reference compound] returned an IC50 of 0.288 µM.

With `C[C@H]1CNCCCN1S(=O)(=O)c1cccc2cncc(F)c12` [Ripasudil, reference compound], the IC50 is 1.69 µM in assay [1] (Rattus norvegicus, A7R5, 1 h) and 29.6 nM against ROCK2.
